These results are taken from patent publication US11925622B2, “Role of novel carbazole linked 1, 2, 3- triazole analogs in alleviating methylglyoxal-mediated late diabetic vascular complications” (priority 2021, dated 2024).

In experiment [1] the test system is PGE2. Briefly: PGE2 levels analysis by ELISA in THP-1 culture supernatants. Type of experiment: cell-based, human. To be noted: THP-1, compounds 1 h, then AGEs 50 μg/mL. The protocol: PGE2 levels analysis: ELISA-based method was employed to identify the concentration of PGE2 in culture supernatants of THP-1 cells that was initially exposed with compounds for 1 h, and then stimulated with AGEs (50 μg/mL). All the steps were followed according to the manufacturer's protocols.
(An ELISA detects its analyte on a solid surface through an enzyme-linked reagent.)

Experiment [2] has as its system MGO-AGEs-induced ROS in THP-1 monocytes. In words: Anti-oxidation activity, DCFH-DA assay of MGO-AGEs-mediated ROS in monocytes. Format: cell-based, human. To be noted: for ROS (DCF fluorescence) in MGO-AGEs-treated monocytes: 100 μM (maximum inhibition), MGO-AGEs 50 μg/mL, 24 h; for antioxidant activity / ROS production inhibition (in words): MGO-AGEs 50 μg/mL-treated THP-1 monocytes. On the procedure: Anti-oxidation activity: The measurement of effect of derivatives on AGEs-mediated ROS was based on the previously reported protocol of Soumyarani and colleagues with slight amendments. Initially, 1×10^6 monocytes/mL were loaded in sterile 96-well flat bottom black fluorescent plate, and pre-incubated with DCFH-DA (10 μM; Sigma-Aldrich Chemical Corporation, St. Louis, Missouri, USA) for 45 min at 37° C. Followed by the incubation, antiglycating, non-toxic carbazole-linked triazole derivatives (10, 30, 50, and 100 μM) were added to the wells for 1 h before co-treatment of cells with MGO-AGEs (50 μg/mL) for next 24 h. Next, the fluorometric measurement of converted DCFH into oxidized DCF product was carried out via spectrofluorimeter (Varioskanmicroplate reader, Thermo Fisher Scientific, USA) using 485 nm excitation and 520 nm emission wavelengths. Various controls were plated in each experiment. Wells containing culture RPMI with MGO-AGEs (50 μg/mL) and H2O2 ([…]) served as positive controls, while cells containing BSA were taken as negative control.

Experiment [3] concerns COX-2. Briefly: COX-2 protein levels analysis by immunoblotting. To be noted: human monocytes co-treated with MGO-AGEs 50 μg/mL; immunoblot densitometry. Format: cell-based. On the procedure: COX-2 protein levels analysis: The 50 μg/mL of protein was loaded onto 10% sodium dodecyl sulfate-polymerized acrylamide gel electrophoresis (SDS-PAGE), and transferred to nitrocellulose membranes using power blotter XL System (Invitrogen; Thermo Fisher Scientific). Subsequently, the membrane was incubated for 1 h in 1% bovine serum albumin in PBS with 0.1% Tween-20 to block unspecified binding. The protein bands of the membrane were probed with primary monoclonal antibody COX-2 (Thermo Fisher Scientific, Waltham, MA, USA), and B-actin (Cloud-Clone Corp., Wuhan, China) for overnight at 4° C. Following incubation, the membrane was rinsed with tris buffer saline tween (TBST) three times, and then exposed to secondary antibody (HRP mouse mono anti-rabbit IgG; Abeam, Cambridge, UK) at room temperature for an hour. The washing was again carried three times with TBST, and then the membrane was exposed to ECL (Sangon biotech, Shanghai, China) to visualize the bands in Western Blot Detection System (Thermo Fisher Scientific, Waltham, MA, USA). The densitometry of immuno-positive COX-2, and β-actin bands was used by Image J.

The test system of experiment [4] is NF-κB (p65) translocation in monocytes. Briefly: NF-κB (p65) translocation analysis by immunocytochemistry. Type of experiment: cell-based, human. To be noted: compounds 100 μM, 1 h pre-incubation; AGEs 50 μg/mL 1 h; MGO-AGEs control 75 RFU, BSA 11 RFU. The protocol: NF-κB (p^65) translocation analysis: The monocytes at the density of 1×10^6 cells/mL were pre-incubated with compounds (100 μM) for an h, and then co-incubated with AGEs (50 μg/mL) for another 1 h in a 24-well plate at 37° C. Following treatment, cells were fixed with paraformaldehyde (4% PFA; 10 min), and permeabilized with Triton X-100 (0.2%; 10 min). Next, the cells were rinsed with chilled PBS three times, and incubated with bovine serum albumin (1% BSA; 1 h) to block the non-specific binding sites. Cells were exposed to primary antibody against NF-κB (p 65) (1:300 dilution, Thermo Fisher Scientific, Waltham, MA, USA) for overnight at 4° C. Subsequently followed by washing the cells with chilled PBS three times, secondary antibody (polyclonal fluorescein isothiocyanate (FITC)-conjugated antibody) to rabbit IgG (1:1000 dilution, Abeam, Cambridge, UK) was used.
Nuclei were counterstained by using DAPI (Thermo Fisher Scientific, Waltham, MA, USA). The BSA-treated monocytes (50 μg/mL) had served as a negative control, while AGEs-treated monocytes (50 μg/mL) as positive control. All the images were taken by using Nikon microscope (Nikon, Tokyo, Japan). The quantification of images was carried out via ImageJ (Image processing and analysis in Java-NIH).

Experiment [5] has as its system MGO-mediated BSA glycation. In words: In vitro antiglycation activity, MGO-BSA glycation assay (fluorescence). The note with it: for IC50 / % inhibition of MGO-BSA glycation: BSA 10 mg/mL, MGO 0.1 M, 24 h, 37° C.; for IC50: read-out: IC50 antiglycation, MGO-BSA model; for % inhibition of MGO-BSA glycation: compounds at 1 mM. Format: biochemical, bovine. The protocol: In vitro antiglycation activity: The MGO-BSA assay was performed as per optimized protocol of Jahan, H. et al with slight modifications. Initially, the antiglycation activity of parent compound carbazole (1), and carbazole-linked 1,2,3 triazoles 2-16 were identified at 1 mM using MGO-BSA model. […] BSA (10 mg/mL) incubated with MGO (0.1 M) for 24 h at 37° C. using phosphate-azide buffer (0.1 mM), served as a positive control. The wells with BSA only were taken as negative control. Whereas, rutin and quercetin were used as standard antiglycation agents. After 24 h of incubation, the fluorescence of each well was measured by using microplate reader (Varioskan lux, Thermo Fisher Scientific, 319 Scientific, USA) at 355 nm excitation, and 460 nm emission.
The % inhibition of MGO-BSA-mediated by carbazole-triazole derivatives was quantified by using the following formula: […]
The IC50 of active antiglycation compounds were identified by using EZ-FIT Enzyme Kinetics Program (Perrella Scientific Inc., Amherst, USA).

The structures appear in SMILES notation. Where “and” joins values, the source holds several entries; their conditions need not be identical. Identical values can stand only once.

Consider `N.S=C(S)N1CCCC1` [PDTC, reference compound], for which the “effect on PGE2 levels (in words)” value in experiment [1] is listed as “relatively more suppression than quercetin”. In experiment [2], the “ROS (DCF fluorescence) in MGO-AGEs-treated monocytes” value (from here on “ROS (DCF fluorescence)”) turned out to be 7.84 RFU. For the same compound, in experiment [3], the “reduction in COX-2 levels compared to MGO-BSA-treated cells” value (“reduction in COX-2 levels” for short) is 1.60 fold. The “NF-κB translocation in MGO-AGEs-treated monocytes” value (shortened to “NF-κB translocation”) in experiment [4] came to 45 RFU.
`O=C(Cn1cc(Cn2c3ccccc3c3ccccc32)nn1)c1ccc([N+](=O)[O-])cc1` [Compound 12, 2-(4-((9H-Carbazole-9-yl)methyl)-1H-1,2,3-triazole-1-y1)-1-(4-nitrophenyl)ethan-1-one]: the “effect on PGE2 levels (in words)” value in experiment [1] is given as “reduced PGE2 levels significantly”. Besides, in experiment [5], the “antiglycation activity in MGO-BSA model (in words)” value is “excellent antiglycation activity”, the IC50 (commonly the concentration that gives 50% inhibition) stood at 76.1 ± 6 µM and the “% inhibition of MGO-BSA glycation” value is reported as 83.7%. Besides, in experiment [2], the “ROS (DCF fluorescence)” value is reported as 6.32 RFU and the “antioxidant activity / ROS production inhibition (in words)” value was “excellent ROS production inhibition”. The “reduction in COX-2 levels” value in experiment [3] is 2.11 fold and 3 fold. In experiment [4], the “NF-κB translocation” value amounted to 33 RFU.
Consider `Cc1ncc([N+](=O)[O-])n1CCn1cc(Cn2c3ccccc3c3ccccc32)nn1` [Compound 13, 9-((1-(2-(2-Methyl-5-nitro-1H-imidazol-1-yl)ethyl)-1H1,2,3-triazol-4-yl)methyl)-9H-carbazole], for which, in experiment [1], the “effect on PGE2 levels (in words)” value is on record as “reduced PGE2 levels significantly”. In experiment [5], the “antiglycation activity in MGO-BSA model (in words)” value is “good activity”, the IC50 was found to be 135 ± 5 µM and the “% inhibition of MGO-BSA glycation” value is listed as 77.8%. In addition, in experiment [2], the “ROS (DCF fluorescence)” value came out at 8.75 RFU and the “antioxidant activity / ROS production inhibition (in words)” value is “excellent ROS production inhibition”. The “NF-κB translocation” value in experiment [4] was 54 RFU.
Regarding `C[C@@H]1O[C@@H](OC[C@H]2O[C@@H](Oc3c(-c4ccc(O)c(O)c4)oc4cc(O)cc(O)c4c3=O)[C@H](O)[C@@H](O)[C@@H]2O)[C@H](O)[C@H](O)[C@H]1O` [Rutin, 2-(3,4-Dihydroxyphenyl)-5,7-dihydroxy-4-oxo-4H-chromen-3-yl 6-O-(6-deoxy-alpha-L-mannopyranosyl)-beta-D-glucopyranoside, reference compound], in experiment [1], the “effect on PGE2 levels (in words)” value is given as “relatively more suppression than quercetin”. Further, in experiment [5], the IC50 turned out to be 104 ± 2 µM and the “% inhibition of MGO-BSA glycation” value was 67%. Moreover, the “ROS (DCF fluorescence)” value in experiment [2] is 7.44 RFU. Moreover, the “reduction in COX-2 levels” value in experiment [3] came out at 1.65 fold. Also, the “NF-κB translocation” value in experiment [4] was found to be 43 RFU.
As to `O=c1c(O)c(-c2ccc(O)c(O)c2)oc2cc(O)cc(O)c12` [Quercetin, 2-(3,4-dihydroxyphenyl)-3,5,7-trihydroxy-4H-chromen-4-one, reference compound], in experiment [5], the IC50 was 138 ± 4 µM and the “% inhibition of MGO-BSA glycation” value was 58%. Further, the “ROS (DCF fluorescence)” value in experiment [2] was 8.39 RFU. Also, the “reduction in COX-2 levels” value in experiment [3] is reported as 1.31 fold. Further, the “NF-κB translocation” value in experiment [4] worked out at 55 RFU.
